# Assay results from US9663508B2, “Biaryl acyl-sulfonamide compounds as sodium channel inhibitors” (AMGEN INC., priority 2013, dated 2017).
# pIC50: −log10 of the molar value.
# Molecular target: human Nav1.7 (Homo sapiens (Human), UniProt Q15858)
# Test: Nav 1.7 in vitro PatchXpress (PX) assay
# Assay type: cell-based
# Details: not given
# human Nav1.7, sequence (Q15858 whole entry): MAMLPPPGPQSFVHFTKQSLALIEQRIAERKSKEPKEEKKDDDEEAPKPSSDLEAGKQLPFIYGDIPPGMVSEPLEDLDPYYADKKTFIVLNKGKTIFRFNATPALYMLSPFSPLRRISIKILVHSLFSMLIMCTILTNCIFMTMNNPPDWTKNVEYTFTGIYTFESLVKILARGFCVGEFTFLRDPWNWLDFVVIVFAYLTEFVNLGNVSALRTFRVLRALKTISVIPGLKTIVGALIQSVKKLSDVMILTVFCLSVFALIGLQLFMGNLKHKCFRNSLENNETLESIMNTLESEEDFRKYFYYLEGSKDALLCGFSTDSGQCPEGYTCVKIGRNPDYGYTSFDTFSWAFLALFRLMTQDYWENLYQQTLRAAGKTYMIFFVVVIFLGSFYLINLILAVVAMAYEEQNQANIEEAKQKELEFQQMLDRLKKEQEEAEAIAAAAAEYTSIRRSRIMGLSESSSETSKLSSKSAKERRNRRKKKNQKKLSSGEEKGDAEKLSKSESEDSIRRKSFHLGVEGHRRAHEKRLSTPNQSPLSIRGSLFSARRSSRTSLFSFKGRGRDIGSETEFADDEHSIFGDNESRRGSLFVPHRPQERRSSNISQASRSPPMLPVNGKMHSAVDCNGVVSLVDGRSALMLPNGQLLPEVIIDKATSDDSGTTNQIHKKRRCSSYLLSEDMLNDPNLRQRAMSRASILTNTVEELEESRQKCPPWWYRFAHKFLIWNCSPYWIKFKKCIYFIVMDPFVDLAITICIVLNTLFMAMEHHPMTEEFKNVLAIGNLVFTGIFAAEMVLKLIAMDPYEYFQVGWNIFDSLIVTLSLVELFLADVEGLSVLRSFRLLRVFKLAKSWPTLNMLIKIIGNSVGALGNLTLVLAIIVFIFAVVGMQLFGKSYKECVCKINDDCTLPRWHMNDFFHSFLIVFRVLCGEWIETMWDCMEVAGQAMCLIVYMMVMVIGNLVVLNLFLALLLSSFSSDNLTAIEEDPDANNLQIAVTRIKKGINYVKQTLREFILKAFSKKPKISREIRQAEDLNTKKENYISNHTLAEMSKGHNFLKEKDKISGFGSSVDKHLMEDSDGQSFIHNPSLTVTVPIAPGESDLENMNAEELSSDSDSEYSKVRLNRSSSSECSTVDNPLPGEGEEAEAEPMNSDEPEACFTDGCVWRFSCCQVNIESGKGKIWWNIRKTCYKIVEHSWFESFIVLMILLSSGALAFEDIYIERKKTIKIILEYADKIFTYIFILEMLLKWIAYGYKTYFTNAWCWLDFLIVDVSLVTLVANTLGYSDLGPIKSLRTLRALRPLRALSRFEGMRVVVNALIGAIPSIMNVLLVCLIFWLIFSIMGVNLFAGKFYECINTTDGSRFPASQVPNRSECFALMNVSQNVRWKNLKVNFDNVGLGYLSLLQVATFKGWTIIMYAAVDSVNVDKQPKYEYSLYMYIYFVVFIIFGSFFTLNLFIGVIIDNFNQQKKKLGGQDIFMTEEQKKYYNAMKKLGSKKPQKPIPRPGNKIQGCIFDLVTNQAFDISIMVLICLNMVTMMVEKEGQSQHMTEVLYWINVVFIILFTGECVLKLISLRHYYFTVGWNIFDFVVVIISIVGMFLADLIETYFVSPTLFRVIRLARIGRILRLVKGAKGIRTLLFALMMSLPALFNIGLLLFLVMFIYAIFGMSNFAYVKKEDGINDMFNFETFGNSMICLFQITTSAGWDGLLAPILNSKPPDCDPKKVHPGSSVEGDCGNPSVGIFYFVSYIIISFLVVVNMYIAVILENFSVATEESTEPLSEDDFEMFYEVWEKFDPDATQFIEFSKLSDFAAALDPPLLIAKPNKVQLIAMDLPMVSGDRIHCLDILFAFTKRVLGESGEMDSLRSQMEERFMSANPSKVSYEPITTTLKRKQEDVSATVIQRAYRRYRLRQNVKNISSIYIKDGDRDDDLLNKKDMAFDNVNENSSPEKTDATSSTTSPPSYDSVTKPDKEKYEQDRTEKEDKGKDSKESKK
row,Compound,pIC50
1,"CS(=O)(=O)NC(=O)c1ccc(-c2cnc(Oc3ccccc3C(F)(F)F)c(Cl)c2)c(OC(F)F)c1 [Example 464, 4-(5-chloro-6-(2-(trifluoromethyl)phenoxy)-3-pyridinyl)-3-(difluoromethoxy)-N-(methylsulfonyl)benzamide]",7.03
2,"Cc1cc(C(=O)NS(C)(=O)=O)c(F)cc1-c1cnc(Oc2ccc(F)cc2C(F)(F)F)c(Cl)c1 [Example 678, 4-(5-chloro-6-(4-fluoro-2-(trifluoromethyl)phenoxy)-3-pyridinyl)-2-fluoro-5-methyl-N-(methylsulfonyl)benzamide]",7.13
3,"Cc1ccc(Oc2ncc(-c3ccc(C(=O)NS(C)(=O)=O)cc3OC(F)F)cc2Cl)c(Cl)c1 [Example 465, 4-(5-chloro-6-(2-chloro-4-methylphenoxy)-3-pyridinyl)-3-(difluoromethoxy)-N-(methylsulfonyl)benzamide]",7.16
4,"COc1cc(C(=O)NS(C)(=O)=O)ccc1-c1cnc(Oc2cccc(Cl)c2Cl)c(Cl)c1 [Example 583, 4-(5-Chloro-6-(2,3-Dichlorophenoxy)Pyridin-3-yl)-3-Methoxy-N-(Methylsulfonyl)Benzamide]",7.52
5,"COc1cc(C(=O)NS(C)(=O)=O)ccc1-c1cnc(Oc2c(F)ccc(F)c2F)c(Cl)c1 [Example 362, 4-(5-chloro-6-(2,3,6-trifluorophenoxy)-3-pyridinyl)-3-methoxy-N-(methylsulfonyl)benzamide]",7.20
6,"COc1cc(C(=O)NS(C)(=O)=O)c(F)cc1-c1cnc(Oc2cccc(Cl)c2C)c(Cl)c1 [Example 704, 4-(5-chloro-6-(3-chloro-2-methylphenoxy)-3-pyridinyl)-2-fluoro-5-methoxy-N-(methylsulfonyl)benzamide]",7.33
7,"COc1cc(C(=O)NS(C)(=O)=O)ccc1-c1cnc(Oc2ccc(Cl)c(OC(F)(F)F)c2)c(Cl)c1 [Example 373, 4-(5-chloro-6-(4-chloro-3-(trifluoromethoxy)phenoxy)-3-pyridinyl)-3-methoxy-N-(methylsulfonyl)benzamide]",7.18
8,"CS(=O)(=O)NC(=O)c1ccc(-c2cnc(Oc3cccc4ccccc34)c(Cl)c2)c(OC(F)F)c1 [Example 452, 4-(5-chloro-6-(1-naphthalenyloxy)-3-pyridinyl)-3-(difluoromethoxy)-N-(methylsulfonyl)benzamide]",7.22
9,"COc1cc(C(=O)NS(C)(=O)=O)ccc1-c1cnc(OCCc2ccccc2)c(C#N)c1 [Example 539, 4-(5-cyano-6-(2-phenylethoxy)-3-pyridinyl)-3-methoxy-N-(methylsulfonyl)benzamide]",7.03
10,"CS(=O)(=O)NC(=O)c1ccc(-c2cnc(Oc3cccc(C(F)(F)F)c3)c(Cl)c2)c(OC(F)F)c1 [Example 456, 4-(5-chloro-6-(3-(trifluoromethyl)phenoxy)-3-pyridinyl)-3-(difluoromethoxy)-N-(methylsulfonyl)benzamide]",7.19
11,"COc1cc(C(=O)NS(C)(=O)=O)ccc1-c1cnc(Oc2c(Cl)cccc2Cl)c(Cl)c1 [Example 581, 4-(5-chloro-6-(2,6-dichlorophenoxy)-3-pyridinyl)-3-methoxy-N-(methylsulfonyl)benzamide]",7.07
12,"Cc1cccc(Cl)c1Oc1ncc(-c2ccc(C(=O)NS(C)(=O)=O)cc2OC(F)F)cc1Cl [Example 468, 4-(5-chloro-6-(2-chloro-6-methylphenoxy)-3-pyridinyl)-3-(difluoromethoxy)-N-(methylsulfonyl)benzamide]",7.27
13,"CCc1cc(Oc2ncc(-c3ccc(C(=O)NS(C)(=O)=O)cc3OC)cc2Cl)ccc1Cl [Example 368, 4-(5-chloro-6-(4-chloro-3-ethylphenoxy)-3-pyridinyl)-3-methoxy-N-(methylsulfonyl)benzamide]",7.14
14,"COc1ncc(Oc2ncc(-c3ccc(C(=O)NS(C)(=O)=O)cc3OC(F)F)cc2Cl)cc1Cl [Example 436, 4-(5-chloro-6-((5-chloro-6-methoxy-3-pyridinyl)oxy)-3-pyridinyl)-3-(difluoromethoxy)-N-(methylsulfonyl)benzamide]",7.04
15,"Cc1cc(C(=O)NS(C)(=O)=O)c(F)cc1-c1cnc(O[C@@H](c2ccccc2)C(F)(F)F)c(Cl)c1 [Example 684, 4-(5-chloro-6-((1S)-2,2,2-trifluoro-1-phenylethoxy)-3-pyridinyl)-2-fluoro-5-methyl-N-(methylsulfonyl)benzamide]",7.03
16,"CC[C@@H](Oc1ncc(-c2cc(F)c(C(=O)NS(C)(=O)=O)cc2C)cc1Cl)c1ccc(F)cc1 [Example 639, 4-(5-chloro-6-(((1R)-1-(4-fluorophenyl)propyl)oxy)-3-pyridinyl)-2-fluoro-5-methyl-N-(methylsulfonyl)benzamide, 4-(5-chloro-6-(((1S)-1-(4-fluorophenyl)propyl)oxy)-3-pyridinyl)-2-fluoro-5-methyl-N-(methylsulfonyl)benzamide]",7.15

# Same assay, conditions: in-vitro Nav 1.7 PX data
row,Compound,pIC50
1,"CS(=O)(=O)NC(=O)c1cc(OC(F)F)c(-c2cnc(OCc3ccc(Cl)cc3)c(Cl)c2)cc1F [Example 786, 4-(5-chloro-6-((4-chlorobenzyl)oxy)-3-pyridinyl)-5-(difluoromethoxy)-2-fluoro-N-(methylsulfonyl)benzamide]",7.26
2,"CCS(=O)(=O)NC(=O)c1ccc(-c2cnc(O[C@H]3C[C@H]4CC[C@@H]3C4)c(Cl)c2)c(OC)c1 [Example 792, 4-(6-((1R,2S,4S)-bicyclo[2.2.1]hept-2-yloxy)-5-chloro-3-pyridinyl)-N-(ethylsulfonyl)-3-methoxybenzamide]",7.07
3,"COc1cc(C(=O)NS(C)(=O)=O)ccc1-c1cnc(COc2ccc(C#N)cc2)c(Cl)c1 [Example 819, 4-(5-Chloro-6-((4-Cyanophenoxy)Methyl)-Pyridin-3-yl)-3-Methoxy-N-(Methylsulfonyl)Benzamide]",5.18
4,"COc1cc(C(=O)NS(C)(=O)=O)c(F)cc1-c1cnc(Oc2ccc(Cl)cc2F)c(Cl)c1 [Example 753, 4-(5-chloro-6-(4-chloro-2-fluorophenoxy)-3-pyridinyl)-2-fluoro-5-methoxy-N-(methylsulfonyl)benzamide]",7.43
5,"COc1cc(C(=O)NS(C)(=O)=O)c(F)cc1-c1cnc(N[C@H]2CC23CCCC3)c(Cl)c1 [Example 771, 4-(5-chloro-6-((1S)-spiro[2.4]hept-1-ylamino)-3-pyridinyl)-2-fluoro-5-methoxy-N-(methylsulfonyl)benzamide]",7.06
6,"COc1cc(C(=O)NS(C)(=O)=O)c(F)cc1-c1cnc(OC(C)C2CCC2)c(Cl)c1 (centres unmarked) [Example 719, 4-(5-Chloro-6-(1-Cyclobutylethoxy)Pyridin-3-yl)-2-Fluoro-5-Methoxy-N-(Methylsulfonyl)Benzamide]",7.05
7,"Cc1cc(Cl)cc(Cl)c1Oc1ncc(-c2cc(F)c(C(=O)NS(C)(=O)=O)cc2F)cc1C#N [Example 787, 4-(5-cyano-6-(2,4-dichloro-6-methylphenoxy)pyridin-3-yl)-2,5-difluoro-N-(methylsulfonyl)benzamide]",7.10
8,"CS(=O)(=O)NC(=O)c1cc(OC(F)F)c(-c2cnc(O[C@@H]3C[C@H]4CC[C@H]3C4)c(Cl)c2)cc1F [Example 783, 4-(6-((1S,2R,4S)-bicyclo[2.2.1]hept-2-yloxy)-5-chloro-3-pyridinyl)-5-(difluoromethoxy)-2-fluoro-N-(methylsulfonyl)benzamide]",7.14
9,"Cc1c(Cl)cccc1Oc1ncc(-c2cc(F)c(C(=O)NS(C)(=O)=O)cc2OC(F)F)cc1Cl [Example 780, 4-(5-chloro-6-(3-chloro-2-methylphenoxy)-3-pyridinyl)-5-(difluoromethoxy)-2-fluoro-N-(methylsulfonyl)benzamide]",7.35
10,"COc1cc(C(=O)NS(C)(=O)=O)c(F)cc1-c1cnc(Oc2cc3ccccc3cc2Cl)c(Cl)c1 [Example 715, 4-(5-chloro-6-((3-chloro-2-naphthalenyl)oxy)-3-pyridinyl)-2-fluoro-5-methoxy-N-(methylsulfonyl)benzamide]",7.01
11,"CCS(=O)(=O)NC(=O)c1ccc(-c2cnc(Oc3cccc(Cl)c3C)c(Cl)c2)c(OC)c1 [Example 789, 4-(5-chloro-6-(3-chloro-2-methylphenoxy)-3-pyridinyl)-N-(ethylsulfonyl)-3-methoxybenzamide]",7.17
12,"CS(=O)(=O)NC(=O)c1ccc(-c2cnc(Oc3cc(Cl)cc(Cl)c3)c(Cl)c2)c(Cl)c1 [Example 777, 3-chloro-4-(5-chloro-6-(3,5-dichlorophenoxy)-3-pyridinyl)-N-(methylsulfonyl)benzamide]",7.40
13,"CCOc1cc(C(=O)NS(C)(=O)=O)c(F)cc1-c1cnc(Oc2cccc(Cl)c2C)c(Cl)c1 [Example 779, 4-(5-chloro-6-(3-chloro-2-methylphenoxy)-3-pyridinyl)-5-ethoxy-2-fluoro-N-(methylsulfonyl)benzamide]",7.02
14,"4-(3-Chloro-4′-Methoxy-2′-Methyl-[2,3′-Bipyridin]-5-yl)-2-Fluoro-5-Methyl-N-(Methyl Sulfonyl)Benzamide [Example 840]",5.08
15,"COc1cc(C(=O)NS(C)(=O)=O)c(F)cc1-c1cnc(Oc2ccc(F)cc2F)c(Cl)c1 [Example 742, 4-(5-chloro-6-(2,4-difluorophenoxy)-3-pyridinyl)-2-fluoro-5-methoxy-N-(methylsulfonyl)benzamide]",7.03
16,"COc1nccc(C)c1-c1cc(C(=O)NS(C)(=O)=O)ccc1-c1cnc(OCC(C)C)c(Cl)c1 (single isomer, unassigned) [Example 821, 4-(5-Chloro-6-Isobutoxypyridin-3-yl)-3-(2-Methoxy-4-Methylpyridin-3-yl)-N-(Methylsulfonyl)Benzamide]",4.50
17,"Cc1cc(C(=O)NS(C)(=O)=O)c(F)cc1-c1cnc(OC(C)(C)C)c(Cl)c1 [Example 816, 4-(6-tert-butoxy-5-chloro-3-pyridinyl)-2-fluoro-5-methyl-N-(methylsulfonyl)benzamide]",6.81
18,"COc1cc(C(=O)NS(C)(=O)=O)c(F)cc1-c1cnc(Oc2cccc(Cl)c2F)c(Cl)c1 [Example 745, 4-(5-chloro-6-(3-chloro-2-fluorophenoxy)-3-pyridinyl)-2-fluoro-5-methoxy-N-(methylsulfonyl)benzamide]",7.14
19,"COc1cc(C(=O)NS(C)(=O)=O)ccc1-c1cnc(Cc2ccc(Cl)c(Cl)c2)c(Cl)c1 [Example 793, 4-(5-chloro-6-(3,4-dichlorobenzyl)pyridin-3-yl)-3-methoxy-N-(methylsulfonyl)benzamide]",7.30
